{"source": "patent US20250186486A1", "about": "“POTENTIATION OF DURABLE ANTITUMOR IMMUNITY BY MULTIFACTORIAL IMMUNE MODULATION” (BAYLOR COLLEGE OF MEDICINE, priority 2022, published 2025)", "key": {"4T-1 TNBC cells": {"system": "4T-1 TNBC cells", "assay": "Subcutaneous 4T-1 TNBC tumor model, intratumoral injection; tumor growth by caliper/IVIS, survival", "assay_type": "in vivo, Balb/c mice", "settings": "4T-1 s.c.; for impact on tumor growth: injected intratumorally on day 12, caliper (FIGS. 7, 8)", "description": "Mice. 6-10 week old female Balb/c mice or C57BL/6 animals of both sexes were procured from Baylor College of Medicine or Jackson Laboratories (Bar Harbor, ME). Th-MYCN mice in the 129X1/SvJ background were a kind gift from Dr. William Weiss (UCSF, San Francisco, CA) and were bred in house. All mice were maintained in accordance with the specific IACUC requirements of Baylor College of Medicine and in accordance with animal protocol AN-8375.\nTumor Implantation and Measurements. 500,000 4T-1 TNBC cells (+/−luc2 transduction) were subcutaneously injected onto the hind quarters/back of each mouse and allowed time to reach palpation (approximately 50-100 mm^3) before treatment. For orthotopic 4T-1 experiments, 500,000 4T-1 cells were implanted in the mammary fat pad according to the method of Zhang et al.^34 Following establishment of tumors, experimental cohorts were assembled by means of stratified randomization. Attempts were made to minimize confounding variables such as order of cohort treatment, order of tumor measurement, and cage location by means of simple randomization. Tumors were treated with either the indicated antitumor regimen or vehicle control and measured by IVIS imaging (if applicable) or calculated by caliper measurement. 100,000 MOC-2 HNSCC cells were subcutaneously injected onto the hind quarters/back of each mouse and allowed to become palpable (approximately 50-100 mm^3) before treatment. Tumor size and progression were determined by caliper measurement. Single cell suspensions were generated from Th-MYCN tumors according to the method of Kroesen et al.^12 Suspensions were subcutaneously injected onto the hind quarters/back of each mouse and allowed time to reach palpation (approximately 50-100 mm^3) before treatment. Tumor size and progression were determined by caliper measurement. Tumor volumes were calculated by measuring in two dimensions according to the formula (longest length^2)×shortest length.\nIVIS Imaging. Post tumor implantation, mice were injected with […] of 10 mg/ml D-Luciferin (Regis Technologies, Morton Grove, IL), incubated for 7 min and bio-luminescence was measured with the IVIS imaging system (Caliper Life Sciences, Waltham, MA) following a 60 second exposure. Imaging was performed at 2-4 day intervals.\nAntitumor reagents. For optimization in the TNBC model, all reagents were dissolved in either DMSO or sterile water based on solubility requirements and included Copper(II) diethyldithiocarbamate at 85 μg/50 μl (VWR, Radnor, PA), 2-Cl-IB-MECA at 20 μg/50 μl (Millipore, Burlington, MA), DMXAA at […]/50 μl (R&D Systems, Minneapolis, MN), 5′ppp-dsRNA/Lyovec at 375 ng/50 μl (Invivogen, San Diego, CA), R848 at 15 μg/50 μl (Invivogen), galunisertib at […]/50 μl (Selleckchem, Houston, TX), epcadostat at […]/50 μl (Selleckchem), N^w-Hydroxy-nor-L-arginine at 6 μg/50 μl (Sigma-Aldrich, St. Louis, MO), L-NMMA at 100 ng/50 μl (Abcam, Boston, MA), clodronate at […]/50 μl (Abcam), and 4-1BB ligand at 1 μg/50 μl (NovusBio). Combinatorial treatments were reconstituted as a 10× stock, combined as necessary, and diluted to a 1× concentration with the appropriate diluent. Treatments were intratumorally injected with a 28 gauge needle as a 50 μl bolus. […]\nStatistical Analysis. Significance of differences, unless stated otherwise, was determined by one-way analysis of variance (ANOVA) using Tukey's honestly significant difference (HSD) post hoc test. […]"}, "4T-1 luc-2+ cells": {"system": "4T-1 luc-2+ cells", "assay": "Orthotopic 4T-1 TNBC model (mammary fat pad), intratumoral treatment, IVIS", "assay_type": "in vivo, Balb/c mice", "settings": "4T-1 luc-2+ in mammary fat pad, intratumoral treatment from day 7", "method": "Lastly, the boosting regimen was combined together with regimen 16 and performed a dose response analysis at 1×, 0.5×, 0.125×, 0.0625×, and 0.03125× concentrations. […] Similar to the experiment outlined in FIGS. 1C-D, this experiment was performed with the 4T-1 luc2^neg parent cell line to validate that protective immune responses were not dependent upon the presence of xenogeneic luciferase. The treatment model was next validated in the orthotopic setting (Zhang et al., 2019). In this series of experiments, 500,000 4T-1 luc-2^+ cells were implanted under the fourth nipple of the mammary fat pad. […]\nTumor Implantation and Measurements. […] Tumors were treated with either the indicated antitumor regimen or vehicle control and measured by IVIS imaging (if applicable) or calculated by caliper measurement. […] Tumor size and progression were determined by caliper measurement. […] Tumor size and progression were determined by caliper measurement. Tumor volumes were calculated by measuring in two dimensions according to the formula (longest length^2)×shortest length.\nIVIS Imaging. Post tumor implantation, mice were injected with […] of 10 mg/ml D-Luciferin (Regis Technologies, Morton Grove, IL), incubated for 7 min and bio-luminescence was measured with the IVIS imaging system (Caliper Life Sciences, Waltham, MA) following a 60 second exposure. […]"}}}
{"compound": "4-1BBL: 4-1BB ligand (NovusBio), 4-1BB agonist", "values": [{"measurement": "effect of presence of 4-1BBL on anti-tumor effects of the TLR, STING and RLR agents", "setting": "4T-1 TNBC cells; FIG. 8", "result": "antagonized the anti-tumor effects"}]}
{"compound": "CC(=O)O.CNC(=N)NCCC[C@H](N)C(=O)O", "note": "[L-NMMA, L-NG-monomethyl arginine acetate]", "values": [{"measurement": "impact on tumor growth", "setting": "4T-1 TNBC cells", "result": "no beneficial impact on tumor growth"}]}
{"compound": "N=C(NO)NCC[C@H](N)C(=O)O", "note": "[No-hydroxy-nor-L-arginine]", "values": [{"measurement": "impact on tumor growth", "setting": "4T-1 TNBC cells", "result": "no beneficial impact on tumor growth"}]}
{"compound": "O=P(O)(O)C(Cl)(Cl)P(=O)(O)O", "note": "[clodronate]", "values": [{"measurement": "impact on tumor growth", "setting": "4T-1 TNBC cells", "result": "no beneficial impact on tumor growth"}]}
{"compound": "NS(=O)(=O)NCCNc1nonc1C(=NO)Nc1ccc(F)c(Br)c1", "note": "[epacadostat]", "values": [{"measurement": "impact on tumor growth", "setting": "4T-1 TNBC cells", "result": "no beneficial impact on tumor growth"}]}
{"compound": "Cc1cccc(-c2nn3c(c2-c2ccnc4ccc(C(N)=O)cc24)CCC3)n1", "note": "[galunersitib, galunisertib]", "values": [{"measurement": "tumor growth in the orthotopic setting", "setting": "4T-1 luc-2+ cells", "result": "no impact on tumor growth"}]}
